Experiments:
FGFR2 = target: T1, FGFR2 (Homo sapiens, UniProt P21802, K310R/N549K); experiment: pERK potency assay (In Cell ELISA), AN3CA cells; format: cell-based; details: for IC50: pERK, AN3CA (FGFR2/k310R, N549K) cells, 3 hours; for FGFR1 IC50/FGFR2 IC50 / FGFR3 IC50/FGFR2 IC50: selectivity ratio, pERK potency; for FGFR1 IC50/FGFR2 IC50: FGFR2 relative to FGFR1; for FGFR3 IC50/FGFR2 IC50: FGFR2 relative to FGFR3
T1 construct: in FGFR aberrations of AN3CA (FGFR2/k310R, N549K); host or cells: AN3CA
T1 sequence (P21802 22-821 K310R/N549K): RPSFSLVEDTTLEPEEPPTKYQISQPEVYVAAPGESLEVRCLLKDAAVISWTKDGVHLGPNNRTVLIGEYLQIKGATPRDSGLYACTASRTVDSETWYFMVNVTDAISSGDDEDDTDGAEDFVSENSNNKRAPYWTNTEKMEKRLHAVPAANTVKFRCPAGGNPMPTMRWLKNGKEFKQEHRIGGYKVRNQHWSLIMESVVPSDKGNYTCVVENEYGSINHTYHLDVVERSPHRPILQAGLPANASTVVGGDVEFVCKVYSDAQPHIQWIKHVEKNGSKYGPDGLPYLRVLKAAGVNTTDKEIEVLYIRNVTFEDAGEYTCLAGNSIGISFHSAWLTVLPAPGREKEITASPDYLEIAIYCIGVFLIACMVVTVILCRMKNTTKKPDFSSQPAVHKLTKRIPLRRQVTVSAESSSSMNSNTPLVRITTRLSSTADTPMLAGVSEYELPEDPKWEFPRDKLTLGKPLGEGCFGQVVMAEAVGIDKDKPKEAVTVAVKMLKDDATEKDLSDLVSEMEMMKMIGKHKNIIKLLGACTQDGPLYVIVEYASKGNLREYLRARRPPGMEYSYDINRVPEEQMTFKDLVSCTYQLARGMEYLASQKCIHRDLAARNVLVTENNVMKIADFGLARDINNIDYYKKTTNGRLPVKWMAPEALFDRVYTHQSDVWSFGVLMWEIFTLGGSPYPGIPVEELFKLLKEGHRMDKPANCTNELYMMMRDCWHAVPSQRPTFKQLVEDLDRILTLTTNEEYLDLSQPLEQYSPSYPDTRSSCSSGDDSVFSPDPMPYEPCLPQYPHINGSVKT
Outline: (§1)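 Cells with FGFR aberrations (DMS114 FGFR1 amplification, RT112 FGFR3-TACC3 fusion, AN3CA FGFR2 K310R/N549K) exposed 3 h at 37 °C to compound, final 0.000038–10 μM (4-fold dilutions). pERK (Thr202/Tyr204) quantified by In-Cell ELISA chemiluminescence; IC50 from 4-parameter sigmoidal fit.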

FGFR1 = target: T2, FGFR1 (Homo sapiens, UniProt P11362); experiment: pERK potency assay (In Cell ELISA), DMS114 cells; format: cell-based; details: DMS114 (FGFR1 amplification) cells, 3 hours
T2 construct: DMS114 (FGFR1 amplification); host or cells: DMS114
T2 sequence (P11362 22-822): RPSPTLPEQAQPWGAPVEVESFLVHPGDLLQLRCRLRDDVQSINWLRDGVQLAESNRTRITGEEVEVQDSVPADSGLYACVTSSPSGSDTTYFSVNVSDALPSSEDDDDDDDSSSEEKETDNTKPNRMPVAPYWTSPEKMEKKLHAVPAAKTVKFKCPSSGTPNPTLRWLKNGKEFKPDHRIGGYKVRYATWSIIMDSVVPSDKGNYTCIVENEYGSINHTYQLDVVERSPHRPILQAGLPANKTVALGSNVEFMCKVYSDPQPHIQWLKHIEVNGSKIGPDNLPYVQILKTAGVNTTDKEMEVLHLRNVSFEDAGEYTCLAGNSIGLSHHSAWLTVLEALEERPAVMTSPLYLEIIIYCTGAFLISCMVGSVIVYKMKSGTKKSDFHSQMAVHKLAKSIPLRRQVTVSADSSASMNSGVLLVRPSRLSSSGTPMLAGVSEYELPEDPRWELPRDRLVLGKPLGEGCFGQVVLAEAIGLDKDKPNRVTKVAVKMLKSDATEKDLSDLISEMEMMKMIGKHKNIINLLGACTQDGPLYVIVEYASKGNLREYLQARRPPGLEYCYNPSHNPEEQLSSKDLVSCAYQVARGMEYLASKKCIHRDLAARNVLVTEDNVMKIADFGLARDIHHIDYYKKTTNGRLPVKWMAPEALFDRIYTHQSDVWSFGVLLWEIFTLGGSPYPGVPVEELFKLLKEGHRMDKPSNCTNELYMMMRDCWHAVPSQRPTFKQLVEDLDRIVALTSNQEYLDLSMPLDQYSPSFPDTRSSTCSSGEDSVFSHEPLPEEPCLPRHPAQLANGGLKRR
Outline: as §1

FGFR3 = target: T3, FGFR3 (Homo sapiens, UniProt P22607); experiment: pERK potency assay (In Cell ELISA), RT112 cells; format: cell-based; details: RT112 (FGFR3 overexpression/FGFR3-TACC3 fusion) cells, 3 hours
T3 construct: RT112 (FGFR3 overexpression/FGFR3-TACC3 fusion); host or cells: RT112; the other entry of the earlier key: TACC3 (Q9Y6A5, Transforming acidic coiled-coil-containing protein 3)
Outline: as §1

Ba/F3 FGFR2-N549K = target: T4, Ba/F3 FGFR2-N549K (Homo sapiens, UniProt P21802, N549K, cells depend on it); experiment: 2D cell proliferation assay, Ba/F3 FGFR2-N549K; format: cell-based, mouse; details: 96 hours, CTG, read-out: Cell Line, IC50 Ba/F3 FGFR2-N549K
T4 construct: fused on or other part: Q9H694 (Protein bicaudal C homolog 1)
T4 sequence (P21802 whole entry N549K, the tested form may be a part): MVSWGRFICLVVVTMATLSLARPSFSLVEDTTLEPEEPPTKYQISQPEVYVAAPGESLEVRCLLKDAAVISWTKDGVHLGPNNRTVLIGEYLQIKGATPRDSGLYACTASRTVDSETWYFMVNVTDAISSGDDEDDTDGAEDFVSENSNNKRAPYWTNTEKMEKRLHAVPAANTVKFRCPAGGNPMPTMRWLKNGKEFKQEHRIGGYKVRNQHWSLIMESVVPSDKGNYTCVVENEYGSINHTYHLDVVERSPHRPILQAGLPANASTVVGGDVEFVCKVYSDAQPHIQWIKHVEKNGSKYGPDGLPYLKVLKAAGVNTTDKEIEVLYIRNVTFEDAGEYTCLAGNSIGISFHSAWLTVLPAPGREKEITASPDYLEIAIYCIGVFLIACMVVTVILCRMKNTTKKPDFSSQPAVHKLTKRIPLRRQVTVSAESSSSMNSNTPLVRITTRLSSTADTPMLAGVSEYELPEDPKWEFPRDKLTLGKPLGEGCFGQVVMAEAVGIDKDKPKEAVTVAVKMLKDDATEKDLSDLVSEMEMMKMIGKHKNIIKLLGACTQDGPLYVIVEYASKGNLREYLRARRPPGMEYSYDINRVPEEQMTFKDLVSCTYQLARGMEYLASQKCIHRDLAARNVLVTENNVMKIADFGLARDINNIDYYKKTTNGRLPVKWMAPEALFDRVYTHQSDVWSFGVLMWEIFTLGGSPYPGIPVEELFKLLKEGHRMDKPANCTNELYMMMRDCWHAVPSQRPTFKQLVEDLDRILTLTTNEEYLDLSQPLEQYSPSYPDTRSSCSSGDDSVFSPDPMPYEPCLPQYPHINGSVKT
Experimental: (§2) Low IC50 values are indicative of the high potency of the FGFR inhibitor compounds in this assay selling. […] Cell proliferation assays are performed in two-dimensional (2D)) anchorage-dependent conditions in 96 well plates (Corning® Black/Clear flat Bottom, Cat #3603) with the following cell lines: • Ba/F3 FGFR2-BICC1 (human […]): Mouse Ba/F3 cell line stably expressed exogenous human FGFR2-BICC1 fusion gene bearing V546F mutation in FGFR2 Ba/F3; • FGFR2-BICC1 (human FGFR2/[…]): Mouse Ba/F3 cell line stably expressed exogenous human FGFR2-BICC1 fusion gene bearing N549K mutation in FGFR2; • Snu-16: human gastric cancer cell with FGFR2 amplification; • KATO III: human gastric cancer cell with FGFR2 amplification; • AN3CA: Human endometrial cancer with FGFR2 mutation (k310R, N549K); • MFM-223: Human breast cancer with FGFR1/2 amplification; • MFE-296: Human endometrial cancer with FGFR2 mutation (N549K); • MFE-280: Human endometrial cancer with FGFR2 mutation ([…]); • NCI-H1581: human non-small cell lung cancer with FGFR1 amplification; • KG-1a: Acute myelogenous leukemia with FGFR1OP2-FGFR1 translocation; • DMS114: human small cell carcinoma of the lung with FGFR1 amplification; • RT112: human bladder cancer with FGFR3 overexpression/FGFR3-TACC3 fusion; • SW780: human bladder cancer with FGFR3 overexpression/FGFR3-BALAP2L1 fusion; • Hep3B: Liver cancer with FGF19 amplification (FGFR4 ligand); • AGS: Human gastric adenocarcinoma with Kras G12D mutation and FGFR wild type; • PC-9: human non-small cell lung cancer (NSCLC) with wild-type FGFR and an EGFR del19 mutation; or • H1975: human non-small cell lung cancer (NSCLC) with wild-type FGFR and EGFR L858R/T790M mutation.
(§3) Cell lines are purchased from the American Type Culture Collection (ATCC) or Sigma. All cell lines are maintained in RPMI-1640 or DMEM supplemented with 10% heat-inactivated fetal bovine serum.
(§4) Cells growing in the log phase are detached with Gibco™ TrypLE™ Express Enzyme and plated in 96 well plate at 3000 to 5000 cells/well in 100 μl of media. After overnight incubation at 37° C., 5% CO2 incubator, cells are treated with compounds (50 uL/well) at the final concentrations spanning from 0.000038 uM to 10 μM (4-fold serial dilution for total of 10 points). Cells are incubated at 37° C., 5% CO2, and 95% humidity incubator for 96 hours. At the end of incubation 2D CTG reagent from Promega was added to each well according to vendors recommendation and mixed for 10 min in dark. The luminescence signals are determined with a Biotek™ plate reader. Data is fitted using a sigmoidal curve analysis program (GraphPad Prism®) with variable hill slope and IC50 is determined.

Ba/F3 FGFR2-V564F = target: T5, Ba/F3 FGFR2-V564F (Homo sapiens, UniProt P21802, V564F, cells depend on it); experiment: 2D cell proliferation assay, Ba/F3 FGFR2-V564F; format: cell-based, mouse; details: 96 hours, CTG, read-out: Cell Line, IC50 Ba/F3 FGFR2-V564F
T5 construct: fused on or other part: Q9H694 (Protein bicaudal C homolog 1)
T5 sequence (P21802 whole entry V564F, the tested form may be a part): as the sequence (P21802 whole entry N549K, the tested form may be a part) above, with K549N, V564F counted along it
Experimental: as §2, §3, §4

AN3CA = experiment: 2D cell proliferation assay, AN3CA; format: cell-based; details: Homo sapiens, AN3-CA, 96 hours, CTG, read-out: Cell Line, IC50 AN3CA
Experimental: as §2, §3, §4

KATO III = experiment: 2D cell proliferation assay, KATO III; format: cell-based; details: Homo sapiens, 96 hours, CTG, read-out: Cell Line, IC50 KATO III
Experimental: as §2, §3, §4

SNU-16 = experiment: 2D cell proliferation assay, SNU-16; format: cell-based; details: Homo sapiens, 96 hours, CTG, read-out: Cell Line, IC50 SNU-16
Experimental: as §2, §3, §4

Structure (SMILES)	IC50 (FGFR2) [nM]	IC50 (FGFR1) [nM]	IC50 (FGFR3) [nM]	GI50 (Ba/F3 FGFR2-N549K) [nM]	GI50 (Ba/F3 FGFR2-V564F) [nM]	IC50 (SNU-16) [nM]	FGFR1 IC50/FGFR2 IC50 (FGFR2)	FGFR3 IC50/FGFR2 IC50 (FGFR2)	IC50 (AN3CA) [nM]	IC50 (KATO III) [nM]
C=CC(=O)N1CCC2(CC=C(c3c(-c4ccc(Oc5ncccn5)cc4)c4c(N)ncnc4n3C)CC2)CC1 [Example 4, 1-(9-(4-amino-7-methyl-5-(4-(pyrimidin-2-yloxy)phenyl)-7H-pyrrolo[2,3-d]pyrimidin-6-yl)-3-azaspiro[5.5]undec-8-en-3-yl)prop-2-en-1-one]	1 to 10	> 100	> 100			1 to 10	F (a selectivity ratio greater than 50 but less than or equal to 150)	G (a selectivity ratio greater than 150 but less than or equal to 500)	30 to 100	10 to 30
C=CC(=O)N1CCC2(CC=C(c3c(-c4ncc(C5CC5)cn4)c4c(N)ncnc4n3C)CC2)CC1 [Example 45, 1-(9-(4-amino-5-(5-cyclopropylpyrimidin-2-yl)-7-methyl-7H-pyrrolo[2,3-d]pyrimidin-6-yl)-3-azaspiro[5.5]undec-8-en-3-yl)prop-2-en-1-one]	≤ 1	> 100	> 100	1 to 10	1 to 10		G (a selectivity ratio greater than 150 but less than or equal to 500)	H (a selectivity ratio greater than 500 but less than or equal to 1000)		
C=CC(=O)N1CCC2(CC=C(c3c(-c4ncc(OC5CC5)cn4)c4c(N)ncnc4n3C)CC2)CC1 [Example 50, 1-(9-(4-amino-5-(5-cyclopropoxypyrimidin-2-yl)-7-methyl-7H-pyrrolo[2,3-d]pyrimidin-6-yl)-3-azaspiro[5.5]undec-8-en-3-yl)prop-2-en-1-one]	≤ 1	> 100	> 100	1 to 10	≤ 1		G (a selectivity ratio greater than 150 but less than or equal to 500)	I (a selectivity ratio greater than 1000 but less than or equal to 2000)		
C=CC(=O)N1CCC2(CC=C(c3c(-c4ncc(OC)cn4)c4c(N)ncnc4n3C)CC2)CC1 [Example 43, 1-(9-(4-amino-5-(5-methoxypyrimidin-2-yl)-7-methyl-7H-pyrrolo[2,3-d]pyrimidin-6-yl)-3-azaspiro[5.5]undec-8-en-3-yl)prop-2-en-1-one]	≤ 1	> 100	> 100	1 to 10	≤ 1		H (a selectivity ratio greater than 500 but less than or equal to 1000)	J (a selectivity ratio greater than 2000)		
C=CC(=O)N1CCC2(CC=C(c3c(-c4ccc(OC(F)F)nc4)c4c(N)ncnc4n3C)CC2)CC1 [Example 29, 1-(9-(4-amino-5-(6-(difluoromethoxy)pyridin-3-yl)-7-methyl-7H-pyrrolo[2,3-d]pyrimidin-6-yl)-3-azaspiro[5.5]undec-8-en-3-yl)prop-2-en-1-one]	≤ 1	> 100	> 100	1 to 10	30 to 100	1 to 10	H (a selectivity ratio greater than 500 but less than or equal to 1000)	J (a selectivity ratio greater than 2000)		1 to 10

The next lines start with results.

IC50 (FGFR2) [nM]	IC50 (FGFR1) [nM]	IC50 (FGFR3) [nM]	GI50 (Ba/F3 FGFR2-N549K) [nM]	GI50 (Ba/F3 FGFR2-V564F) [nM]	IC50 (SNU-16) [nM]	Structure (SMILES)	FGFR1 IC50/FGFR2 IC50 (FGFR2)	FGFR3 IC50/FGFR2 IC50 (FGFR2)	IC50 (AN3CA) [nM]	IC50 (KATO III) [nM]
1 to 10	> 100	> 100	1 to 10	≤ 1		C=CC(=O)N1CCC2(CC=C(c3c(-c4ncc(C5CCOC5)cn4)c4c(N)ncnc4n3C)CC2)CC1 (stereo not drawn) [Example 52, 1-(9-(4-amino-7-methyl-5-(5-(tetrahydrofuran-3-yl)pyrimidin-2-yl)-7H-pyrrolo[2,3-d]pyrimidin-6-yl)-3-azaspiro[5.5]undec-8-en-3-yl)prop-2-en-1-one]	H (a selectivity ratio greater than 500 but less than or equal to 1000)	I (a selectivity ratio greater than 1000 but less than or equal to 2000)		
1 to 10	> 100	> 100			10 to 30	C=CC(=O)N1CCC2(CC=C(c3c(-c4cccc(F)c4)c4c(N)ncnc4n3C)CC2)CC1 [Example 10, 1-(9-(4-amino-5-(3-fluorophenyl)-7-methyl-7H-pyrrolo[2,3-d]pyrimidin-6-yl)-3-azaspiro[5.5]undec-8-en-3-yl)prop-2-en-1-one]	G (a selectivity ratio greater than 150 but less than or equal to 500)	G (a selectivity ratio greater than 150 but less than or equal to 500)	30 to 100	10 to 30
1 to 10	> 100	> 100			10 to 30	C=CC(=O)N1CCC2(CC=C(c3c(-c4cccc(OC)c4)c4c(N)ncnc4n3C)CC2)CC1 [Example 16, 1-(9-(4-amino-5-(3-methoxyphenyl)-7-methyl-7H-pyrrolo[2,3-d]pyrimidin-6-yl)-3-azaspiro[5.5]undec-8-en-3-yl)prop-2-en-1-one]	F (a selectivity ratio greater than 50 but less than or equal to 150)	G (a selectivity ratio greater than 150 but less than or equal to 500)	30 to 100	10 to 30
1 to 10	> 100	> 100	1 to 10	≤ 1		C=CC(=O)N1CCC2(CC=C(c3c(-c4ncc(F)cn4)c4c(N)ncnc4n3C)CC2)CC1 [Example 44, 1-(9-(4-amino-5-(5-fluoropyrimidin-2-yl)-7-methyl-7H-pyrrolo[2,3-d]pyrimidin-6-yl)-3-azaspiro[5.5]undec-8-en-3-yl)prop-2-en-1-one]	H (a selectivity ratio greater than 500 but less than or equal to 1000)	J (a selectivity ratio greater than 2000)		
≤ 1	> 100	> 100	> 100	> 100		C=CC(=O)N1CCC2(CC=C(c3c(-c4ncc(OC5CCOC5)cn4)c4c(N)ncnc4n3C)CC2)CC1 (stereo not drawn) [Example 47, 1-(9-(4-amino-7-methyl-5-(5-((tetrahydrofuran-3-yl)oxy)pyrimidin-2-yl)-7H-pyrrolo[2,3-d]pyrimidin-6-yl)-3-azaspiro[5.5]undec-8-en-3-yl)prop-2-en-1-one]	G (a selectivity ratio greater than 150 but less than or equal to 500)	I (a selectivity ratio greater than 1000 but less than or equal to 2000)		
